From patent publication US9815796B2 (Merck Sharp & Dohme Corp., priority 2013, dated 2017) come the findings set out here.

Like-named read-outs stand apart in the source and are kept apart here.

One test concerns the target human PDE2A1 (Homo sapiens (Human), UniProt O00408). The experiment in a line: IMAP FP PDE selectivity panel, human PDE2A1. The class given is biochemical. The method, boiled down:
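IMAP FP format: substrate 50 nM FAM-cAMP plus 1000 nM cGMP, enzyme (insect-cell GST-tagged human PDE2A1) at ~20% conversion, 60 min reaction at room temperature. Apparent inhibition constants calculated from parallel/perpendicular fluorescence with KM 10,000 nM.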

A further test concerns the target Rhesus PDE2A3 (Macaca mulatta, UniProt B3VTJ2). In words: PDE2 fluorescence polarization (IMAP FP) inhibition assay, rhesus enzyme. It counts as biochemical, rhesus macaque. The method, boiled down: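 IMAP FP (mP from parallel and perpendicular fluorescence against substrate-only control) was read ≥1 h after adding binding reagent. The preceding 60 min room-temperature reaction contained FAM-cAMP (50 nM) and cGMP (1 uM) in pH 7.2 Tris buffer with MgCl2 and DTT. Enzyme was supernatant of sonicated AD293 cells expressing rhesus PDE2A3; compounds were 3-fold titrated, DMSO 1% final.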

Where [1] appears, read: Human PDE2, Lab A, read-out: Human PDE2 Ki (nM) - Lab A.
The mark [2] stands for this setting: Rhesus PDE2, Lab A, read-out: Rhesus PDE2 Ki (nM) - Lab A.
The mark [3] stands for this setting: Human PDE2, Lab B, read-out: Human PDE2 Ki (nM) - Lab B.
Where [4] appears, read: Rhesus PDE2, Lab B, read-out: Rhesus PDE2 Ki (nM) - Lab B.

Sequence of Rhesus PDE2A3 (B3VTJ2 1-941): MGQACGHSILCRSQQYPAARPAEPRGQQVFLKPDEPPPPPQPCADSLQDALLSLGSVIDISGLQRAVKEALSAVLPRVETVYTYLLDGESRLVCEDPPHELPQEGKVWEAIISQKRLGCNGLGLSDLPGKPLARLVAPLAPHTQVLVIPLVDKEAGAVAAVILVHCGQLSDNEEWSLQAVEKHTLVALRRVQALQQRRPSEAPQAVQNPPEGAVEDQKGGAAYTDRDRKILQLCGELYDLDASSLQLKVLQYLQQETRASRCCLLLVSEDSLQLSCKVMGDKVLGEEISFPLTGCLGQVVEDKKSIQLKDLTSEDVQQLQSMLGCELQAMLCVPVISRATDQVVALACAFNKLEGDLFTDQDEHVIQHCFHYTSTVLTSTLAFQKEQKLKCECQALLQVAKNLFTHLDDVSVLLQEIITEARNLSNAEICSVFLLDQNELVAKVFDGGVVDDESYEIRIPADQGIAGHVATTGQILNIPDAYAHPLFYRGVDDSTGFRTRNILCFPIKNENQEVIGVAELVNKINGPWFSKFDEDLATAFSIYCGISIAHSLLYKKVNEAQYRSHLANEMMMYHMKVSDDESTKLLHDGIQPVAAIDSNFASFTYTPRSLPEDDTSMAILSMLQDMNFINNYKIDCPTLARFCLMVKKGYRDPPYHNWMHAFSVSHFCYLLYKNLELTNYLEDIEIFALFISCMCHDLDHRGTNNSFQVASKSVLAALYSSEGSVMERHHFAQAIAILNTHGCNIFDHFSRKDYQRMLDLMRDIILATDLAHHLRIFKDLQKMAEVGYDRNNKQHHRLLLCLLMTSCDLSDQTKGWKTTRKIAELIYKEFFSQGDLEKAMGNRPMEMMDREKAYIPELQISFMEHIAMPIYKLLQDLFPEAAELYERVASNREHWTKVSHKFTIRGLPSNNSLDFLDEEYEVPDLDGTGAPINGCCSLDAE
Sequence of human PDE2A1 (O00408 other isoform, or with tags, fused parts or gaps): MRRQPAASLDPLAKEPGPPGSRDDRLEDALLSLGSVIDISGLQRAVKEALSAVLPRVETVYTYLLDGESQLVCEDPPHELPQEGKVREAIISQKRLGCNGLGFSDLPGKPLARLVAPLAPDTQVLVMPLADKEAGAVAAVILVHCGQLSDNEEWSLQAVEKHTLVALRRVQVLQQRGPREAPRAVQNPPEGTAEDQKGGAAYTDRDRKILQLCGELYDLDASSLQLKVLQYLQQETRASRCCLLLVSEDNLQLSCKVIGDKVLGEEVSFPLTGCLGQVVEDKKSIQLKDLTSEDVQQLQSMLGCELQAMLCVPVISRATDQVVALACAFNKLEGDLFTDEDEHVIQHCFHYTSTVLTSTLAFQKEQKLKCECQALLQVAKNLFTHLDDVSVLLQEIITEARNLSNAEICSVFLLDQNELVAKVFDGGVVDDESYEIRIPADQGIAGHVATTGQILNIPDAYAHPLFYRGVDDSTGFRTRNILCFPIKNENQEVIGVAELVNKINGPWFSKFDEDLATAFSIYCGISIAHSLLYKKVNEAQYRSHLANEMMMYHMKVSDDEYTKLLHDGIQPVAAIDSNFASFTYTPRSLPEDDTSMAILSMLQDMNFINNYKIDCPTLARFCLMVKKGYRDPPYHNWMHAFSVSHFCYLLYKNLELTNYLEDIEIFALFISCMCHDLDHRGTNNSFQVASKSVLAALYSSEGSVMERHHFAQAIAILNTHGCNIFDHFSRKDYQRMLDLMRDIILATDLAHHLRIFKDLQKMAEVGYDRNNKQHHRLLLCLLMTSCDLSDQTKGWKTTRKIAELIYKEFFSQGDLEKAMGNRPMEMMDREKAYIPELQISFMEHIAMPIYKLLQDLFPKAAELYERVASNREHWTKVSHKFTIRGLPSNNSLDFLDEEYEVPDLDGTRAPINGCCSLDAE

On to `C[C@@H](NC(=O)c1cc(=O)[nH]c(-c2ccccc2)n1)c1ccc(-c2ccccc2)cc1` [Example 279, N-[(1R)-1-biphenyl-4-ylethyl]-6-oxo-2-phenyl-1,6-dihydropyrimidine-4-carboxamide], for which the Ki amounted to 16 nM on human PDE2A1 (setting [1]) and 24 nM on Rhesus PDE2A3 (setting [2]).

On to `Cc1nc(C(=O)N[C@H](C)c2ccc(C(F)(F)F)c(Cl)c2)cc(=O)[nH]1` [Example 47, N-{(1R)-1-[3-chloro-4-(trifluoromethyl)phenyl]ethyl}-2-methyl-6-oxo-1,6-dihydropyrimidine-4-carboxamide], for which the figures for the Ki at human PDE2A1 (setting [1]) and at Rhesus PDE2A3 (setting [2]) were 32 nM and 41 nM, respectively.

Regarding `C[C@@H](NC(=O)c1cc(=O)[nH]c(-c2ncccn2)n1)c1cc(F)c(C(F)(F)F)c(F)c1` [Example 108, N-{(1R)-1-[3,5-difluoro-4-(trifluoromethyl)phenyl]ethyl}-6-oxo-1,6-dihydro-2,2′-bipyrimidine-4-carboxamide], the Ki at human PDE2A1 (setting [1]) is approximately 9.2 nM; at human PDE2A1 (setting [3]), 39 nM; at Rhesus PDE2A3 (setting [2]) it was 25 nM; at Rhesus PDE2A3 (setting [4]), 33 nM.

In the case of `O=C(NCc1ccc(C2CC2)cc1)c1cc(=O)[nH]c(-c2ccccc2)n1` [Example 182, N-(4-cyclopropylbenzyl)-6-oxo-2-phenyl-1,6-dihydropyrimidine-4-carboxamide], the Ki on human PDE2A1 (setting [1]) is 118 nM; at Rhesus PDE2A3 (setting [2]), 141 nM.

Consider `CC(C)[C@@H](NC(=O)c1cc(=O)[nH]c(-c2ncccn2)n1)c1ccc(SC(F)(F)F)c(F)c1` [Example 245, N-[(1R)-1-{3-fluoro-4-[(trifluoromethyl)sulfanyl]phenyl}-2-methylpropyl]-6-oxo-1,6-dihydro-2,2′-bipyrimidine-4-carboxamide], for which the results for the Ki on human PDE2A1 (setting [3]), at Rhesus PDE2A3 (setting [2]) and at Rhesus PDE2A3 (setting [4]) were 1.3 nM, 1.4 nM and 1.3 nM, respectively.

With `CC(NC(=O)c1cc(=O)[nH]c(-c2ccccc2)n1)c1ccc2c(c1)OCCO2` (stereo not drawn) [Example 360, N-[1-(2,3-dihydro-1,4-benzodioxin-6-yl)ethyl]-6-oxo-2-phenyl-1,6-dihydropyrimidine-4-carboxamide], the Ki at human PDE2A1 (setting [3]) is approximately 488 nM; on Rhesus PDE2A3 (setting [2]), 222 nM; at Rhesus PDE2A3 (setting [4]), 459 nM.

Turning to `CC(C)c1ccc([C@@H](C)NC(=O)c2cc(=O)[nH]c(-c3ccccc3)n2)cc1` [Example 146, N-{(1R)-1-[4-(1-methylethyl)phenyl]ethyl}-6-oxo-2-phenyl-1,6-dihydropyrimidine-4-carboxamide], the figures for the Ki at human PDE2A1 (setting [1]) and on Rhesus PDE2A3 (setting [2]) were 7.1 nM and 9.3 nM, respectively.

On to `O=C(NC1(c2ccc(C(F)(F)F)cc2)CC1)c1cc(=O)[nH]c(-c2ncccn2)n1` [Example 284, 6-oxo-N-{1-[4-(trifluoromethyl)phenyl]cyclopropyl}-1,6-dihydro-2,2′-bipyrimidine-4-carboxamide], for which the inhibition constant (Ki) stood at 36 nM on human PDE2A1 (setting [1]) and 43 nM on Rhesus PDE2A3 (setting [2]).

On to `CC(C)[C@@H](NC(=O)c1cc(=O)[nH]c(-c2ncccn2)n1)c1ccc(OC(F)(F)F)c(F)c1` [Example 74, N-{(1R)-1-[3-fluoro-4-(trifluoromethoxy)phenyl]-2-methylpropyl}-6-oxo-1,6-dihydro-2,2′-bipyrimidine-4-carboxamide], for which the Ki is 4.7 nM on human PDE2A1 (setting [3]), 5 nM at Rhesus PDE2A3 (setting [2]) and 4.8 nM on Rhesus PDE2A3 (setting [4]).

Regarding `Cc1nc(C(=O)N[C@@H](c2ccc(C(F)(F)F)c(F)c2)C(C)C)cc(=O)[nH]1` [Example 240, N-{(1R)-1-[3-fluoro-4-(trifluoromethyl)phenyl]-2-methylpropyl}-2-methyl-6-oxo-1,6-dihydropyrimidine-4-carboxamide], the figures for the Ki on human PDE2A1 (setting [1]) and at Rhesus PDE2A3 (setting [2]) were 8.8 nM and 14 nM, respectively.

On to `CC1(C(NC(=O)c2cc(=O)[nH]c(-c3ncccn3)n2)c2ccc(SC(F)(F)F)c(F)c2)CC1` (single isomer, unassigned) [Example 709, (R)- or (S)-N-((3-fluoro-4-((trifluoromethyl)thio)phenyl)(1-methylcyclopropyl)methyl)-6-oxo-1,6-dihydro-[2,2′-bipyrimidine]-4-carboxamide], for which the Ki on human PDE2A1 (setting [3]) amounted to 7.4 nM; at Rhesus PDE2A3 (setting [4]), 8.1 nM.

Take `O=C(NCc1ccc(S(F)(F)(F)(F)F)cc1)c1cc(=O)[nH]c(-c2ccccc2)n1` [Example 377, 6-oxo-N-[4-(pentafluoro-λ^6-sulfanyl)benzyl]-2-phenyl-1,6-dihydropyrimidine-4-carboxamide]: the figures for the inhibitory constant (Ki) at human PDE2A1 (setting [3]) and at Rhesus PDE2A3 (setting [2]) were 58 nM and 28 nM, respectively.

Turning to `COc1ccc(Cc2nc(C(=O)N[C@H](C)c3ccc(C(F)(F)F)cc3)cc(=O)[nH]2)cc1OC` [Example 4, 2-(3,4-dimethoxybenzyl)-6-oxo-N-{(1R)-1-[4-(trifluoromethyl)phenyl]ethyl}-1,6-dihydropyrimidine-4-carboxamide], the Ki at human PDE2A1 (setting [1]) came to 0.52 nM; on Rhesus PDE2A3 (setting [2]), 0.56 nM.

Regarding `Cc1nc(C(=O)N[C@H](C)c2ccc(C3(C)CC3)cc2)cc(=O)[nH]1` [Example 530, 2-methyl-N-{(1R)-1-[4-(1-methylcyclopropyl)phenyl]ethyl}-6-oxo-1,6-dihydropyrimidine-4-carboxamide], the values for the Ki on human PDE2A1 (setting [3]) and at Rhesus PDE2A3 (setting [4]) were 28 nM and 47 nM, respectively.

For `CC[C@@H](NC(=O)c1cc(=O)[nH]c(C2CC2)n1)c1ccc(OC(F)(F)F)cc1` [Example 225, 2-cyclopropyl-6-oxo-N-{(1R)-1-[4-(trifluoromethoxy)phenyl]propyl}-1,6-dihydropyrimidine-4-carboxamide], the Ki stood at 4.6 nM at human PDE2A1 (setting [1]) and 8.3 nM on Rhesus PDE2A3 (setting [2]).

As to `CC(C)(NC(=O)c1cc(=O)[nH]c(-c2ccccc2)n1)c1ccc(C(F)(F)F)c(F)c1` [Example 158, N-{1-[3-fluoro-4-(trifluoromethyl)phenyl]-1-methylethyl}-6-oxo-2-phenyl-1,6-dihydropyrimidine-4-carboxamide], the Ki is 9 nM on human PDE2A1 (setting [1]) and 14 nM at Rhesus PDE2A3 (setting [2]).

Consider `CC[C@@H](NC(=O)c1cc(=O)[nH]c(Cc2ccc(OC)c(F)c2)n1)c1ccc(S(F)(F)(F)(F)F)cc1` [Example 526, 2-(3-fluoro-4-methoxybenzyl)-6-oxo-N-{(1R)-1-[4-(pentafluoro-λ^6-sulfanyl)phenyl]propyl}-1,6-dihydropyrimidine-4-carboxamide], for which the Ki came to 3.9 nM on human PDE2A1 (setting [3]) and 4.1 nM at Rhesus PDE2A3 (setting [4]).

As to `Cc1nc(C(=O)N[C@@H](c2ccc(OC(F)F)cc2)C2CC2)cc(=O)[nH]1` [Example 610, N-{(R)-cyclopropyl[4-(difluoromethoxy)phenyl]methyl}-2-methyl-6-oxo-1,6-dihydropyrimidine-4-carboxamide], the inhibitory constant (Ki) at human PDE2A1 (setting [3]) was determined as 70 nM; on Rhesus PDE2A3 (setting [4]), 68 nM.

Turning to `Cc1nc(C(=O)N[C@@H](c2ccc(OC(F)(F)F)cc2)C(C)(C)C)cc(=O)[nH]1` [Example 57, (R)-N-(2,2-dimethyl-1-(4-(trifluoromethoxy)phenyl)propyl)-2-methyl-6-oxo-1,6-dihydropyrimidine-4-carboxamide], the Ki on human PDE2A1 (setting [3]) was determined as 3.9 nM; at Rhesus PDE2A3 (setting [4]), 5.8 nM.

For the compound `CC(C)(C)[C@@H](NC(=O)c1cc(=O)[nH]c(C2CC2)n1)c1ccc(SC(F)(F)F)cc1` [Example 439, 2-cyclopropyl-N-[(1R)-2,2-dimethyl-1-{4-[(trifluoromethyl)sulfanyl]phenyl}pro-pyl]-6-oxo-1,6-dihydropyrimidine-4-carboxamide], the Ki at human PDE2A1 (setting [3]) came out at 1.3 nM; at Rhesus PDE2A3 (setting [4]), 1 nM.
